In ChEMBL document CHEMBL4800722, “Data for DCP probe BI 605906” (2021):

Tests used:
[1] = biological target: Serotonin 1 (5-HT1) receptor (Rattus norvegicus) (UniProt P28564+P30940+P19327+P28565); assay: 5HT1/R Eurofins SafetyScreen44 (BI); type: protein assay
[2] = biological target: Phosphodiesterase 3 (Homo sapiens) (UniProt Q14432+Q13370); assay: PDE-III/HU Eurofins SafetyScreen44 (BI); type: protein assay; settings: Compound concentration 10.0 uM
[3] = biological target: 5'-AMP-activated protein kinase catalytic subunit alpha-2/beta-1/gamma-2 (Homo sapiens) (UniProt P54646+Q9UGJ0+Q9Y478); assay: AMPK (A2/B1/G2) Invitrogen Lab (UK) kinase screen (BI); type: protein-complex assay; settings: Compound concentration 1.0 uM
[4] = biological target: Cyclin-dependent kinase 5 (Homo sapiens) (UniProt Q00535); assay: CDK5 (INACTIVE) Invitrogen Lab (UK) kinase screen (BI); settings: Compound concentration 1.0 uM
Chain of Cyclin-dependent kinase 5 (Homo sapiens) (Q00535 whole entry, looked up): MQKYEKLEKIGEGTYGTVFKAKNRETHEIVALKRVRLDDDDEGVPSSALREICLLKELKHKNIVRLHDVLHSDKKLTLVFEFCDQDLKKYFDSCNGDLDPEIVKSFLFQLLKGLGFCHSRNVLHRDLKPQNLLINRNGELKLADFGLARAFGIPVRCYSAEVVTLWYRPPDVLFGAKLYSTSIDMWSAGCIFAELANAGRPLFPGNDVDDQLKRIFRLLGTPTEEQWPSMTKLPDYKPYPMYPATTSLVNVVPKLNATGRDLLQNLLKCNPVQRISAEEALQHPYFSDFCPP

[5] = biological target: cAMP-dependent protein kinase catalytic subunit beta (Homo sapiens) (UniProt P22694); assay: PRKACB (PRKAC BET Invitrogen Lab (UK) kinase screen (BI); settings: Compound concentration 1.0 uM
[6] = biological target: Ribosomal protein S6 kinase beta-2 (Homo sapiens) (UniProt Q9UBS0); assay: RPS6KB2 (P70S6KB) Invitrogen Lab (UK) kinase screen (BI); settings: Compound concentration 1.0 uM
[7] = biological target: Leucine-rich repeat serine/threonine-protein kinase 2 (Homo sapiens) (UniProt Q5S007); assay: LRRK2 Invitrogen Lab (UK) kinase screen (BI); settings: Compound concentration 1.0 uM
[8] = biological target: High affinity nerve growth factor receptor (Homo sapiens) (UniProt P04629); assay: NTRK1 Invitrogen Lab (UK) kinase screen (BI)
[9] = biological target: PI3-kinase p110-alpha/p85-alpha (Homo sapiens) (UniProt P27986+P42336); assay: PIK3CAPIK3R1 Invitrogen Lab (UK) kinase screen (BI); type: protein-complex assay; settings: Compound concentration 1.0 uM
[10] = biological target: Tyrosine-protein kinase Yes (Homo sapiens) (UniProt P07947); assay: YES1 Invitrogen Lab (UK) kinase screen (BI); settings: Compound concentration 1.0 uM
[11] = biological target: MAP kinase-activated protein kinase 2 (Homo sapiens) (UniProt P49137); assay: MAPKAPK2 DUNDEE kinase screen (BI); settings: Compound concentration 10.0 uM
[12] = biological target: Mitogen-activated protein kinase 14 (Homo sapiens) (UniProt Q16539); assay: SAPK2AP38 DUNDEE kinase screen (BI); settings: Compound concentration 10.0 uM
[13] = biological target: 5-hydroxytryptamine receptor 1D (Homo sapiens) (UniProt P28221); settings: Compound concentration 10.0 uM
[14] = biological target: 5-hydroxytryptamine receptor 2B (Homo sapiens) (UniProt P41595); settings: Compound concentration 10.0 uM
[15] = biological target: Histamine H3 receptor (Homo sapiens) (UniProt Q9Y5N1); settings: Compound concentration 10.0 uM
[16] = biological target: Muscarinic acetylcholine receptor M2 (Homo sapiens) (UniProt P08172); settings: Compound concentration 10.0 uM
[17] = biological target: Acetylcholinesterase (Homo sapiens) (UniProt P22303); settings: Compound concentration 10.0 uM
[18] = biological target: D(3) dopamine receptor (Homo sapiens) (UniProt P35462); settings: Compound concentration 10.0 uM
[19] = biological target: Nitric oxide synthase 3 (Bos taurus) (UniProt P29473); settings: Compound concentration 10.0 uM
[20] = biological target: Histamine H2 receptor (Homo sapiens) (UniProt P25021); settings: Compound concentration 10.0 uM
[21] = biological target: Phospholipase A2 (Sus scrofa) (UniProt A0A8D1VEY7); settings: Compound concentration 10.0 uM
[22] = biological target: Serine/threonine-protein kinase PLK4 (Homo sapiens) (UniProt O00444); settings: Compound concentration 1.0 uM
[23] = biological target: Dual specificity testis-specific protein kinase 2 (Homo sapiens) (UniProt Q96S53); settings: Compound concentration 1.0 uM
[24] = biological target: RAC-beta serine/threonine-protein kinase (Homo sapiens) (UniProt P31751); settings: Compound concentration 1.0 uM
[25] = biological target: Bone morphogenetic protein receptor type-1A (Homo sapiens) (UniProt P36894); settings: Compound concentration 1.0 uM
[26] = biological target: Macrophage colony-stimulating factor 1 receptor (Homo sapiens) (UniProt P07333)
Chain of Macrophage colony-stimulating factor 1 receptor (Homo sapiens) (P07333 whole entry): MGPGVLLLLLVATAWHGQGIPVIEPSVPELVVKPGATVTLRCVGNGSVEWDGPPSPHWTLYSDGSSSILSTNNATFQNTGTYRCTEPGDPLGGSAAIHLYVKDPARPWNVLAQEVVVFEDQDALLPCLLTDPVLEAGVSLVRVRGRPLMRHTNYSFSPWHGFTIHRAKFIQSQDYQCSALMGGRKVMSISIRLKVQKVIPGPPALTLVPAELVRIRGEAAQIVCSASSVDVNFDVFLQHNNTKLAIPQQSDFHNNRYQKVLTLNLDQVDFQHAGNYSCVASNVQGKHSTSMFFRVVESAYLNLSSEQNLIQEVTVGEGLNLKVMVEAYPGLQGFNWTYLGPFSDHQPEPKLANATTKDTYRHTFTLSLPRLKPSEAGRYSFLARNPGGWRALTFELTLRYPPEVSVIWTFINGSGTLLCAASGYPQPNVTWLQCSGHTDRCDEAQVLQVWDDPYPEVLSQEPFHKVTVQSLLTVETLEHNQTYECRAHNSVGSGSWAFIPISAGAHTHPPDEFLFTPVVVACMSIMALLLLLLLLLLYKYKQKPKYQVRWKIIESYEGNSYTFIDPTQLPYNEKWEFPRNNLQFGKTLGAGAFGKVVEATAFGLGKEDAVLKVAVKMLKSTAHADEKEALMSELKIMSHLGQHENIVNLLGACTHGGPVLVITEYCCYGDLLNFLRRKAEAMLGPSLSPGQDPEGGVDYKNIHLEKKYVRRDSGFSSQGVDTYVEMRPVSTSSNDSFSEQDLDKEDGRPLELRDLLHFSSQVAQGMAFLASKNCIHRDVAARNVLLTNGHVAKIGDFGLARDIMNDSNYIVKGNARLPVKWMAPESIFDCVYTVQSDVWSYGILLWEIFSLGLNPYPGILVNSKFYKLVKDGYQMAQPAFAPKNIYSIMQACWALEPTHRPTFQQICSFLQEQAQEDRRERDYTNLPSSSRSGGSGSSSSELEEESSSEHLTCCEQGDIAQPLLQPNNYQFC

[27] = biological target: Dual specificity tyrosine-phosphorylation-regulated kinase 3 (Homo sapiens) (UniProt O43781); settings: Compound concentration 1.0 uM
[28] = biological target: G protein-coupled receptor kinase 5 (Homo sapiens) (UniProt P34947); settings: Compound concentration 1.0 uM
[29] = biological target: Inhibitor of nuclear factor kappa-B kinase subunit beta (Homo sapiens) (UniProt O14920)
Chain of Inhibitor of nuclear factor kappa-B kinase subunit beta (Homo sapiens) (O14920 whole entry): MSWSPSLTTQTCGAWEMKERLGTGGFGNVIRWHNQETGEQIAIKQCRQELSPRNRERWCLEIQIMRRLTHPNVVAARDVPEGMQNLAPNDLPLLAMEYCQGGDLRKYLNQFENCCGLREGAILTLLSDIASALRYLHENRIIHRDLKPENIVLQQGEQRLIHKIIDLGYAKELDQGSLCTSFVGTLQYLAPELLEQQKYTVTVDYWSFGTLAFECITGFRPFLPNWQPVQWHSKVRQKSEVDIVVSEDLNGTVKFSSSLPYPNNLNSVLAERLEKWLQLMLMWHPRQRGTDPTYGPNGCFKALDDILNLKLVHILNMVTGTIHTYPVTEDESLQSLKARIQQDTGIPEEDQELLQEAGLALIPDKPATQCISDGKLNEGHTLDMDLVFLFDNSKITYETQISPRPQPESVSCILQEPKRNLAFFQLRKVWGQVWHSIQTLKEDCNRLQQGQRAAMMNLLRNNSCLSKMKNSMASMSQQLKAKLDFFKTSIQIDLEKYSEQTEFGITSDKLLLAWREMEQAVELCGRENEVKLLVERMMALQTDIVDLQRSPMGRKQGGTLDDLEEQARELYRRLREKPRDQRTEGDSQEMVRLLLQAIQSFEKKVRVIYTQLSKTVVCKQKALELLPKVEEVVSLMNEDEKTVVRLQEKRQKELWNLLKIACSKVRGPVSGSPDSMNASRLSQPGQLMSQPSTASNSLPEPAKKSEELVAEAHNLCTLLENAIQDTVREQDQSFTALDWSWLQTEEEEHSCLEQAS

[30] = biological target: Insulin receptor (Homo sapiens) (UniProt P06213)
Chain of Insulin receptor (Homo sapiens) (P06213 28-758 limits assumed): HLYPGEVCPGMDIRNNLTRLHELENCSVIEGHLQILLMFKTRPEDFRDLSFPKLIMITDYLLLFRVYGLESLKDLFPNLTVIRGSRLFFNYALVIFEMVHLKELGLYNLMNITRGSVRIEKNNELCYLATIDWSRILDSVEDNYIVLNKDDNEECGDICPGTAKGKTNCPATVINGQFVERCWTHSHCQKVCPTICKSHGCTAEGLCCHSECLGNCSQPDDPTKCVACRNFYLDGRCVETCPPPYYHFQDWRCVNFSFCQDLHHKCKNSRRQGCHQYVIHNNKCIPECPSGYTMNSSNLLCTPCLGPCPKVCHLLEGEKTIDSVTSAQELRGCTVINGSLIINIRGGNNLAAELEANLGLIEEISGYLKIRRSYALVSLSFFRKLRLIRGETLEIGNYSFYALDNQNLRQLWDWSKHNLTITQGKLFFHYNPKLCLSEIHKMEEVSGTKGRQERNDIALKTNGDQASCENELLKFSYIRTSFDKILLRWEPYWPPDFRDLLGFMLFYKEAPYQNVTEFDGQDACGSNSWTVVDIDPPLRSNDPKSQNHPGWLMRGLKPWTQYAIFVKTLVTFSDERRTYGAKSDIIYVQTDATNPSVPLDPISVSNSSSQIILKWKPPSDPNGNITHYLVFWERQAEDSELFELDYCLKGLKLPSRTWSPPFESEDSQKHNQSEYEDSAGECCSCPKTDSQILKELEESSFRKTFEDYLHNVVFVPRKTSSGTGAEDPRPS
Chain of Insulin receptor (Homo sapiens) (P06213 763-1382 limits assumed): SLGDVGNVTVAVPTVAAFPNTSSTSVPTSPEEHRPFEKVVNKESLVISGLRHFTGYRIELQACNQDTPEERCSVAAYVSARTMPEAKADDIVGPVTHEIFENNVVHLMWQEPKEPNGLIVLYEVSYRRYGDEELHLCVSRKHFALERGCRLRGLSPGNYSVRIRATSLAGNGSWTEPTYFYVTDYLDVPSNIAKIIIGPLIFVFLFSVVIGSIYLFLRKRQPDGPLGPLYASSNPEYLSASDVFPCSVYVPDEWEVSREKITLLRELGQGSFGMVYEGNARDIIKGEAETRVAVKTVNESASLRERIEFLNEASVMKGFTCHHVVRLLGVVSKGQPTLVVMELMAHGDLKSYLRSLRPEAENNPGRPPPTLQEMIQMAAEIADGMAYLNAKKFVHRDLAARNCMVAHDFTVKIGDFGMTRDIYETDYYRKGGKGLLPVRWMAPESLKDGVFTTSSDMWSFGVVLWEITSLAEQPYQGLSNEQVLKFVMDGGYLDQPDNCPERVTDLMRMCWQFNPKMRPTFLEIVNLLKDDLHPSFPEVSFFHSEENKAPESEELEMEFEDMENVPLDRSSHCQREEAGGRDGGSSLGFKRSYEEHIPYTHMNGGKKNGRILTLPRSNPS

[31] = biological target: Interleukin-1 receptor-associated kinase 1 (Homo sapiens) (UniProt P51617); settings: Compound concentration 1.0 uM
[32] = biological target: Interleukin-1 receptor-associated kinase 4 (Homo sapiens) (UniProt Q9NWZ3)
Chain of Interleukin-1 receptor-associated kinase 4 (Homo sapiens) (Q9NWZ3 whole entry): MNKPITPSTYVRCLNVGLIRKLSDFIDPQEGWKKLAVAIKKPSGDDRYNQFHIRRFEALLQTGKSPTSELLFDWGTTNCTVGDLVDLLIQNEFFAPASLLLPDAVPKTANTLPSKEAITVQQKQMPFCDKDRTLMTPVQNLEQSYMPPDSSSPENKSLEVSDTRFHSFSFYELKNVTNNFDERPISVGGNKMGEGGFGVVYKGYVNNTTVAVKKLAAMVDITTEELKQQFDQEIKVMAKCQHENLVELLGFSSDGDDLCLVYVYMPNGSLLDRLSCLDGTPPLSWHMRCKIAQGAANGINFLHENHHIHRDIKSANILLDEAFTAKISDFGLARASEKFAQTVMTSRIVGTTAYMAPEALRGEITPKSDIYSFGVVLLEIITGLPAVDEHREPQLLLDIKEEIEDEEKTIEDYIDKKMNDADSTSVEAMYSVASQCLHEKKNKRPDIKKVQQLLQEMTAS

[33] = biological target: Mitogen-activated protein kinase kinase kinase 14 (Homo sapiens) (UniProt Q99558); settings: Compound concentration 1.0 uM
[34] = biological target: Mitogen-activated protein kinase kinase kinase 7 (Homo sapiens) (UniProt O43318); settings: Compound concentration 1.0 uM
[35] = biological target: Misshapen-like kinase 1 (Homo sapiens) (UniProt Q8N4C8); settings: Compound concentration 1.0 uM
[36] = biological target: Phosphatidylinositol 4-phosphate 3-kinase C2 domain-containing subunit beta (Homo sapiens) (UniProt O00750); settings: Compound concentration 1.0 uM
[37] = biological target: Protein kinase C beta type (Homo sapiens) (UniProt P05771)
Chain of Protein kinase C beta type (Homo sapiens) (P05771 2-671 limits assumed): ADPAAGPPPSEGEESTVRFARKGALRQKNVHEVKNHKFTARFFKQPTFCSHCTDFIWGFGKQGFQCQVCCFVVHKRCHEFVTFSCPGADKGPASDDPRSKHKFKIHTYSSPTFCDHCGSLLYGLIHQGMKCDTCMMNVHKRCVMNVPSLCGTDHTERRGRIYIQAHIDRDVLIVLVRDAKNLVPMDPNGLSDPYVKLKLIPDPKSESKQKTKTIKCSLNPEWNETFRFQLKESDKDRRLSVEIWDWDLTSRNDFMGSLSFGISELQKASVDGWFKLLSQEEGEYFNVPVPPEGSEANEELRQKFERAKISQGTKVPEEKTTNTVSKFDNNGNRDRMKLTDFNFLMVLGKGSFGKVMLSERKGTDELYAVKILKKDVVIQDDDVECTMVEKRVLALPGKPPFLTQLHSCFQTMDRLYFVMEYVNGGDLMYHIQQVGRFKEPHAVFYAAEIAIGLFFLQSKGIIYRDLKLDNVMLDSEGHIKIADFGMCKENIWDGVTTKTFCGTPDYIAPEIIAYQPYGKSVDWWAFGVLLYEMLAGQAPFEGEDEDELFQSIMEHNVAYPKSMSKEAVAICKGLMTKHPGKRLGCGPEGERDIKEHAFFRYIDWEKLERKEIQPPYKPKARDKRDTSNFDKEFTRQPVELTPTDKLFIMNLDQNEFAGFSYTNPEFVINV

[38] = biological target: cGMP-dependent protein kinase 2 (Homo sapiens) (UniProt Q13237); settings: Compound concentration 1.0 uM
[39] = biological target: cAMP-dependent protein kinase catalytic subunit PRKX (Homo sapiens) (UniProt P51817); settings: Compound concentration 1.0 uM
[40] = biological target: Proto-oncogene tyrosine-protein kinase Src (Homo sapiens) (UniProt P12931)
Chain of Proto-oncogene tyrosine-protein kinase Src (Homo sapiens) (P12931 2-536 limits assumed): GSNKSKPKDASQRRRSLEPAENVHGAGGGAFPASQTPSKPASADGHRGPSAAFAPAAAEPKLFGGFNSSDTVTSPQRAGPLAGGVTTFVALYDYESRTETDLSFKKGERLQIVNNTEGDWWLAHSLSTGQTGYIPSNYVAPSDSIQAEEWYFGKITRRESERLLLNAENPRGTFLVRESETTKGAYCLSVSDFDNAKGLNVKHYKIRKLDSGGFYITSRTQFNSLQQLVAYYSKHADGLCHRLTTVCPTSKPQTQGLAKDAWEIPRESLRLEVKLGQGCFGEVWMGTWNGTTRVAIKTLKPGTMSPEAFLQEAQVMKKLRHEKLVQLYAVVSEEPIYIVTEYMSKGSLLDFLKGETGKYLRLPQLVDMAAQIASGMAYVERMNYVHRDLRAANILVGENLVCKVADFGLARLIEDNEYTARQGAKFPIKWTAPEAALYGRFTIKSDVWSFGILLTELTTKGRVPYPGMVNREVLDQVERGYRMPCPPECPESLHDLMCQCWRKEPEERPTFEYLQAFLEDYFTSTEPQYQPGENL

[41] = biological target: Activated CDC42 kinase 1 (Homo sapiens) (UniProt Q07912); settings: Compound concentration 1.0 uM
[42] = biological target: Non-receptor tyrosine-protein kinase TYK2 (Homo sapiens) (UniProt P29597); settings: Compound concentration 1.0 uM

CCC(F)(F)c1cc(N2CCC(S(C)(=O)=O)CC2)nc2sc(C(N)=O)c(N)c12 [BI-605906]
residual activity ([1]; Compound concentration 10.0 uM): 119%
residual activity ([1]; Compound concentration 100.0 uM): 107%
residual activity [2]: 31%
residual activity [3]: 88%
residual activity [4]: 83%
residual activity [5]: 77%
residual activity [6]: 86%
residual activity [7]: 62%
residual activity ([8]; Compound concentration 1.0 uM): 81%
residual activity ([8]; Compound concentration 10.0 uM): 83%
residual activity [9]: 103%
residual activity [10]: 74%
residual activity [11]: 94.5%
residual activity [12]: 85.3%
inhibition [13]: 26.9%
inhibition [14]: 13.4%
inhibition [15]: 0.2%
inhibition [16]: 8%
residual activity [17]: 87%
residual activity [18]: 105%
residual activity [19]: 100%
residual activity [20]: 94%
residual activity [21]: 96%
residual activity [22]: 89%
residual activity [23]: 90%
residual activity [24]: 95%
residual activity [25]: 100%
residual activity ([26]; Compound concentration 1.0 uM): 58%
residual activity ([26]; Compound concentration 10.0 uM): 14%
residual activity [27]: 92%
residual activity [28]: 96%
residual activity ([29]; Compound concentration 1.0 uM): 13.5%
residual activity ([29]; Compound concentration 10.0 uM): -1.5%
residual activity ([30]; Compound concentration 1.0 uM): 94%
residual activity ([30]; Compound concentration 10.0 uM): 93%
residual activity [31]: 89%
residual activity ([32]; Compound concentration 1.0 uM): 100%
residual activity ([32]; Compound concentration 10.0 uM): 90%
residual activity [33]: 100%
residual activity [34]: 101%
residual activity [35]: 96%
residual activity [36]: 101%
residual activity ([37]; Compound concentration 1.0 uM): 89%
residual activity ([37]; Compound concentration 10.0 uM): 102%
residual activity [38]: 108%
residual activity [39]: 96%
residual activity ([40]; Compound concentration 1.0 uM): 79%
residual activity ([40]; Compound concentration 10.0 uM): 92%
residual activity [41]: 97%
residual activity [42]: 93%
